# Measurements as given in article PMC4965013, “Open Source Drug Discovery with the Malaria Box Compound Collection for Neglected Diseases and Beyond” (PLoS Pathogens, 2016).
# Read-outs that look alike come from different tables or passages of the source.
# Columns and labels:
# [1] = test system: P. falciparum 3D7; test: [3H]-hypoxanthine growth inhibition, modified HCO3- or O2; format: cell-based; conditions: for IC50: Plasmodium falciparum
# [2] = test system: P. falciparum; test: EC50 listed in S2 Table Metabolomics (used to set the concentration tested); format: cell-based; conditions: Plasmodium falciparum; EC50 used for Factor_XEC50 in metabolomics; read-out: EC50_nM
# [3] = test system: P. falciparum 3D7 trophozoites; test: Metabolomic fingerprint profiling LC-MS; format: cell-based, Plasmodium falciparum; design: UDP-D-glucose / ADP-D-glucose: unit not given here; conditions: for Acetyllysine / N-acetyl-L-ornithine / N-carbamoyl-L-aspartate / NADPH / dAMP / dCMP / dTDP / dTMP / dTTP / dihydroorotate / orotate / DLH / DLS/SDL/SID / PD / PEE / PVNF / 3-phosphoglycerate / ADP-D-glucose / ATP / CDP / D-sedoheptulose-1/7-phosphate / FAD / GMP / NAD+ / NADP+ / Octoluse Bisphosphate / Pyroglutamic acid / UDP-D-glucose / UDP-D-glucuronate / UDP-N-acetyl-glucosamine / UDP / UMP / UTP / a-ketoglutarate / citrate/isocitrate / cytidine / dATP / dGMP/AMP / fumarate / glucose-1/6-phosphate / glycerate / guanine / guanosine / hypoxanthine / indole / inosine / nicotinate / ornithine / phosphoenolpyruvate / pyruvate / ribose-phosphate / sarcosine/alanine / sn-glycerol-3-phosphate / succinate/methylmalonic acid / uridine / xanthosine: S2 Table Metabolomics; for Acetyllysine: metabolite Acetyllysine; for N-acetyl-L-ornithine: metabolite N-acetyl-L-ornithine; for N-carbamoyl-L-aspartate: metabolite N-carbamoyl-L-aspartate; for NADPH: metabolite NADPH; for dAMP: metabolite dAMP; for dCMP: metabolite dCMP; for dTDP: metabolite dTDP; for dTMP: metabolite dTMP; for dTTP: metabolite dTTP; for dihydroorotate: metabolite dihydroorotate; for orotate: metabolite orotate; for DLH: peptide DLH; for DLS/SDL/SID: peptide DLS/SDL/SID; for PD: peptide PD; for PEE: peptide PEE; for PVNF: peptide PVNF; for 3-phosphoglycerate: metabolite 3-phosphoglycerate; for ADP-D-glucose: metabolite ADP-D-glucose; for ATP: metabolite ATP; for CDP: metabolite CDP; for CDP / D-sedoheptulose-1/7-phosphate / GMP / Octoluse Bisphosphate / UDP / UMP / UTP / citrate/isocitrate / dGMP/AMP / fumarate / glucose-1/6-phosphate / glycerate / guanine / guanosine / inosine / pyruvate / sarcosine/alanine / succinate/methylmalonic acid / uridine / xanthosine: change in metabolite level after compound treatment; for D-sedoheptulose-1/7-phosphate: metabolite D-sedoheptulose-1/7-phosphate; for FAD: metabolite FAD; for GMP: metabolite GMP; for NAD+: metabolite NAD+; for NADP+: metabolite NADP+; for Octoluse Bisphosphate: metabolite Octoluse Bisphosphate; for Pyroglutamic acid: metabolite Pyroglutamic acid; for UDP-D-glucose: metabolite UDP-D-glucose; for UDP-D-glucuronate: metabolite UDP-D-glucuronate; for UDP-N-acetyl-glucosamine: metabolite UDP-N-acetyl-glucosamine; for UDP: metabolite UDP; for UMP: metabolite UMP; for UTP: metabolite UTP; for a-ketoglutarate: metabolite a-ketoglutarate; for citrate/isocitrate: metabolite citrate/isocitrate; for cytidine: metabolite cytidine; for dATP: metabolite dATP; for dGMP/AMP: metabolite dGMP/AMP; for fumarate: metabolite fumarate; for glucose-1/6-phosphate: metabolite glucose-1/6-phosphate; for glycerate: metabolite glycerate; for guanine: metabolite guanine; for guanosine: metabolite guanosine; for hypoxanthine: metabolite hypoxanthine; for indole: metabolite indole; for inosine: metabolite inosine; for 2_3-Diphosphoglyceric acid / 4-phosphopantothenate / 6-phospho-D-gluconate / FMN / IMP / Pyrophosphate / Sedoheptoluse bisphosphate / cyclic-AMP / glutathione disulfide / lactate / myo-inositol: metabolite level change after treatment; for nicotinate: metabolite nicotinate; for ornithine: metabolite ornithine; for phosphoenolpyruvate: metabolite phosphoenolpyruvate; for pyruvate: metabolite pyruvate; for ribose-phosphate: metabolite ribose-phosphate; for sarcosine/alanine: metabolite sarcosine/alanine; for sn-glycerol-3-phosphate: metabolite sn-glycerol-3-phosphate; for succinate/methylmalonic acid: metabolite succinate/methylmalonic acid; for uridine: metabolite uridine; for xanthosine: metabolite xanthosine
smiles,measurement,setting,value
Cc1cc(Nc2ccc(Cl)cc2)n2nc(C(F)(F)F)nc2n1 [MMV011256],fold change (IC50normal/ IC50hypoxia),[1],5.0
same,IC50,"[1]; 3D7, read-out: P. falciparum 3D7 IC50 1% O2, 1% O2 hypoxia",0.07 µM
same,IC50,"[1]; 3D7, read-out: P. falciparum 3D7 IC50 5% O2",0.349 µM
same,EC50,[2],0.212 µM
same,Acetyllysine,[3],-0.5963
same,N-acetyl-L-ornithine,[3],-0.507
same,N-carbamoyl-L-aspartate,[3],4.681
same,NADPH,[3],1.178
same,dAMP,[3],-1.417
same,dCMP,[3],0.2248
same,dTDP,[3],-0.9712
same,dTMP,[3],-0.998
same,dTTP,[3],-0.8663
same,dihydroorotate,[3],5.399
same,orotate,[3],-0.2345
same,DLH,[3],-0.3185
same,DLS/SDL/SID,[3],-0.4128
same,PD,[3],0.2516
same,PEE,[3],-0.4695
same,PVNF,[3],-1.475
same,3-phosphoglycerate,[3],0.08815
same,ADP-D-glucose,[3],0.5309
same,ATP,[3],-0.05125
same,CDP,[3],-0.6896
same,D-sedoheptulose-1/7-phosphate,[3],0.1853
same,FAD,[3],0.084
same,GMP,[3],0.2583
same,NAD+,[3],0.00935
same,NADP+,[3],0.5726
same,Octoluse Bisphosphate,[3],0.02106
same,Pyroglutamic acid,[3],-0.3979
same,UDP-D-glucose,[3],0.01111
same,UDP-D-glucuronate,[3],-0.02444
same,UDP-N-acetyl-glucosamine,[3],-0.1642
same,UDP,[3],-0.997
same,UMP,[3],-0.7924
same,UTP,[3],-1.308
same,a-ketoglutarate,[3],-0.5125
same,citrate/isocitrate,[3],-0.4219
same,cytidine,[3],-0.1943
same,dATP,[3],0.3626
same,dGMP/AMP,[3],0.01292
same,fumarate,[3],-0.2283
same,glucose-1/6-phosphate,[3],-0.259
same,glycerate,[3],-0.6701
same,guanine,[3],0.06677
same,guanosine,[3],0.3651
same,hypoxanthine,[3],-0.6973
same,indole,[3],-0.3061
same,inosine,[3],-0.4425
same,2_3-Diphosphoglyceric acid,[3],0.2246
same,4-phosphopantothenate,[3],-0.3914
same,6-phospho-D-gluconate,[3],0.1976
same,FMN,[3],-0.1065
same,IMP,[3],0.1475
same,Pyrophosphate,[3],0.2465
same,Sedoheptoluse bisphosphate,[3],0.08943
same,cyclic-AMP,[3],-0.1063
same,glutathione disulfide,[3],0.192
same,lactate,[3],-0.653
same,myo-inositol,[3],-1.111
same,nicotinate,[3],-0.2929
same,ornithine,[3],0.09761
same,phosphoenolpyruvate,[3],0.0459
same,pyruvate,[3],-0.6078
same,ribose-phosphate,[3],-0.1179
same,sarcosine/alanine,[3],0.2817
same,sn-glycerol-3-phosphate,[3],-0.0008256
same,succinate/methylmalonic acid,[3],0.03166
same,uridine,[3],-0.902
same,xanthosine,[3],0.002012
CSC1=NC(=Nc2c(C)cccc2C)C2(CCC(C(C)(C)C)CC2)N1c1ccc(Cl)cc1 (stereo not shown) [MMV666596],EC50,[2],0.135 µM
same,Acetyllysine,[3],0.05532
same,N-acetyl-L-ornithine,[3],0.3033
same,N-carbamoyl-L-aspartate,[3],4.209
same,NADPH,[3],0.4611
same,dAMP,[3],-1.695
same,dCMP,[3],-0.02373
same,dTDP,[3],-0.6033
same,dTMP,[3],-0.6441
same,dTTP,[3],-0.4211
same,dihydroorotate,[3],4.453
same,orotate,[3],-0.2494
same,DLH,[3],0.07485
same,DLS/SDL/SID,[3],0.1058
same,PD,[3],0.3494
same,PEE,[3],0.3362
same,PVNF,[3],-0.2122
same,3-phosphoglycerate,[3],0.06499
same,ADP-D-glucose,[3],0.1455
same,ATP,[3],-0.04037
same,CDP,[3],-0.436
same,D-sedoheptulose-1/7-phosphate,[3],-0.1476
same,FAD,[3],0.02917
same,GMP,[3],-0.07998
same,NAD+,[3],-0.07608
same,NADP+,[3],0.2106
same,Octoluse Bisphosphate,[3],-0.01707
same,Pyroglutamic acid,[3],-0.1892
same,UDP-D-glucose,[3],-0.01772
same,UDP-D-glucuronate,[3],-0.05432
same,UDP-N-acetyl-glucosamine,[3],-0.1657
same,UDP,[3],-0.847
same,UMP,[3],-0.5062
same,UTP,[3],-0.6788
same,a-ketoglutarate,[3],-0.3441
same,citrate/isocitrate,[3],-0.1956
same,cytidine,[3],-0.05016
same,dATP,[3],0.3608
same,dGMP/AMP,[3],-0.2908
same,fumarate,[3],0.4042
same,glucose-1/6-phosphate,[3],-0.3631
same,glycerate,[3],-0.704
same,guanine,[3],-0.05943
same,guanosine,[3],0.2542
same,hypoxanthine,[3],-0.3496
same,indole,[3],-0.1947
same,inosine,[3],-0.267
same,2_3-Diphosphoglyceric acid,[3],0.06366
same,4-phosphopantothenate,[3],-0.3594
same,6-phospho-D-gluconate,[3],0.1204
same,FMN,[3],0.0335
same,IMP,[3],-0.08883
same,Pyrophosphate,[3],0.1408
same,Sedoheptoluse bisphosphate,[3],0.09241
same,cyclic-AMP,[3],-0.008887
same,glutathione disulfide,[3],0.04205
same,lactate,[3],-0.4137
same,myo-inositol,[3],-0.699
same,nicotinate,[3],-0.1654
same,ornithine,[3],0.2004
same,phosphoenolpyruvate,[3],0.0459
same,pyruvate,[3],-0.8143
same,ribose-phosphate,[3],0.02121
same,sarcosine/alanine,[3],-0.1953
same,sn-glycerol-3-phosphate,[3],0.3928
same,succinate/methylmalonic acid,[3],0.09915
same,uridine,[3],-0.4544
same,xanthosine,[3],-0.03694
